Data as given in patent US11952330B2, “Antibiotic ammonium compounds and methods for the treatment of bacterial infections” (priority 2019, dated 2024).

Tests used:
A. baumannii = assay: MIC by broth dilution, A. baumannii; type: cell-based; conditions: Acinetobacter baumannii; Mueller-Hinton broth, overnight 37° C.; Table 1; read-out: MIC (μg/mL) A. baumannii
Experimental: (§1) The antibacterial efficacy of the ammonium compounds was assessed. Minimum inhibitory concentrations (MICs) were determined by broth dilution method. Dilutions of each compound, ranging from 1 μg/mL to 256 μg/mL (final concentrations) were prepared in Mueller-Hinton broth. Compound dilutions were added to wells of a 96-well plate, with the concentration of the compound increasing 2-fold by row. Each well contained 5×10^5 CFU/ml of target bacterium in a total volume of 100 μl. Plates were incubated overnight at 37° C. The following day, plates were evaluated for a visual change in growth to determine the MIC. The concentration value corresponding to the first row that no longer had visible bacterial growth, as evaluated by turbidity in the wells, was recorded as the MIC. MIC values were representative of at least biological duplicates, each made up of technical triplicates. The antibacterial efficacy of ammonium compounds in the presence of human plasma was assessed. Minimum inhibitory concentrations (MICs) were determined by broth dilution method. Dilutions of each compound, ranging from 1 μg/mL to 256 μg/mL (final concentrations) were prepared in Mueller-Hinton broth. For the plasma containing samples, compound dilutions were made in Mueller-Hinton broth and supplemented with 5% (final %) human plasma (esterases). Compound dilutions were added to wells of a 96-well plate, with the concentration of the compound increasing 2-fold by row. Each well contained 5×10^5 CFU/mL of target bacterium in a total volume of 100 μL. Plates were incubated overnight at 37° C. The following day, plates were evaluated for a visual change in growth to determine the MIC. The concentration value corresponding to the first row that no longer had visible bacterial growth, as evaluated by turbidity in the wells, was recorded as the MIC. MIC values were representative of at least biological duplicates, each made up of technical triplicates.

S. aureus = assay: MIC by broth dilution, S. aureus; type: cell-based; conditions: Staphylococcus aureus; Mueller-Hinton broth, overnight 37° C.; Table 1; read-out: MIC (μg/mL) S. aureus
Experimental: as §1

Row | Structure (SMILES) | MIC (A. baumannii) [µg/mL] | MIC (S. aureus) [µg/mL]
1 | CCCCCCCCOc1ccccc1C(=O)Nc1ccc(C(=O)OCC[N+](CC)(CC)Cc2ccc(C(F)(F)F)cc2)cc1.[Br-] [Compound 41, N,N-Diethyl-2-((4-(2-(octyloxy)benzamido)benzoyl)oxy)-N-(4-(trifluoromethyl)-benzyl)ethan-1-aminium bromide] | > 30 | < 3
2 | CCCCCCCCOc1ccccc1C(=O)Nc1ccc(C(=O)OCC[N+](CC)(CC)Cc2cccc(F)c2)cc1.[Br-] [Compound 42, N,N-Diethyl-N-(3-fluorobenzyl)-2-((4-(2-(octyloxy)benzamido)benzoyl)oxy)ethan-1-aminium bromide] | 3 to 30 | < 3
3 | CCCCCCCCOc1ccccc1C(=O)Nc1ccc(C(=O)OCC[N+](CC)(CC)Cc2cccc(F)c2F)cc1.[Br-] [Compound 43, N,N-Diethyl-N-(2,3-difluorobenzyl)-2-((4-(2-(octyloxy)benzamido)benzoyl)oxy)-ethan-1-aminium bromide] | 3 to 30 | < 3
4 | CCCCCCCCOc1ccccc1C(=O)Nc1ccc(C(=O)OCC[N+](CC)(CC)CCCCc2ccccc2)cc1.[Br-] [Compound 44, N,N-Diethyl-N-(2-((4-(2-(octyloxy)benzamido)benzoyl)oxy)ethyl)-4-phenylbutan-1-aminium bromide] | 3 to 30 | < 3
5 | CCCCCCCCOc1ccccc1C(=O)Nc1ccc(C(=O)OCCC[N+](C)(CC)CC)cc1.[I-] [Compound 45, N,N-Diethyl-N-methyl-3-((4-(2-(octyloxy)benzamido)benzoyl)oxy)propan-1-aminium iodide] | 3 to 30 | 3 to 30
6 | CCCCCCCCOc1ccccc1C(=O)Nc1ccc(C(=O)OCCCC[N+](C)(C)C)cc1.[I-] [Compound 46, N,N,N-Trimethyl-4-((4-(2-(octyloxy)benzamido)benzoyl)oxy)butan-1-aminium iodide] | > 30 | 3 to 30
7 | CCCCCCCCOc1ccccc1C(=O)Nc1ccc(C(=O)OCC[N+](CC)(CC)CCC(C)(C)C)cc1.[Br-] [Compound 47, N,N-Diethyl-3,3-dimethyl-N-(2-((4-(2-(octyloxy)benzamido)benzoyl)oxy)ethyl)-butan-1-aminium bromide] | 3 to 30 | < 3
8 | CCCCCCCCCC[N+](CC)(CC)CCOC(=O)c1ccc(NC(=O)c2ccccc2OCCCCCCCC)cc1.[Br-] [Compound 48, N,N-Diethyl-N-(2-((4-(2-(octyloxy)benzamido)benzoyl)oxy)ethyl)decan-1-aminium bromide] | > 30 | < 3
9 | CCCCCCCCCCC[N+](CC)(CC)CCOC(=O)c1ccc(NC(=O)c2ccccc2OCCCCCCCC)cc1.[Br-] [Compound 49, N,N-Diethyl-N-(2-((4-(2-(octyloxy)benzamido)benzoyl)oxy)ethyl)undecan-1-aminium bromide] | > 30 | < 3
10 | CCCCCCCCOc1ccccc1C(=O)Nc1ccc(C(=O)OCC[N+](CC)(CC)Cc2cccc(OC)c2)cc1.[Br-] [Compound 50, N,N-Diethyl-N-(3-methoxybenzyl)-2-((4-(2-(octyloxy)benzamido)benzoyl)oxy)-ethan-1-aminium bromide] | 3 to 30 | < 3
11 | CCCCCCCCOc1ccccc1C(=O)Nc1ccc(C(=O)OCC[N+](CC)(CC)Cc2ccc(C(=O)OC)cc2)cc1.[Br-] [Compound 51, N,N-Diethyl-N-(4-(methoxycarbonyl)benzyl)-2-((4-(2-(octyloxy)benzamido)-benzoyl)oxy)ethan-1-aminium bromide] | > 30 | < 3
12 | CCCCCCCCOc1ccccc1C(=O)Nc1ccc(C(=O)OCC[N+]2(C)CCCC2)cc1.[Br-] [Compound 52, 1-Methyl-1-(2-((4-(2-(octyloxy)benzamido)benzoyl)oxy)ethyl)pyrrolidin-1-ium bromide] | > 30 | 3 to 30
13 | CCCCCCCCOc1ccccc1C(=O)Nc1ccc(C(=O)OC2CC[N+](C)(CC)CC2)cc1.[Br-] (stereo not shown) [Compound 53, 1-Ethyl-1-methyl-4-((4-(2-(octyloxy)benzamido)benzoyl)oxy)piperidin-1-ium bromide] | > 30 | 3 to 30
14 | CCCCCCCCOc1ccccc1C(=O)Nc1ccc(C(=O)N2CC[N+](C)(CC)CC2)cc1.[Br-] [Compound 54, 1-Ethyl-1-methyl-4-(4-(2-(octyloxy)benzamido)benzoyl)piperazin-1-ium bromide] | > 30 | > 30
15 | CCCCCCCCOc1ccccc1C(=O)Nc1ccc(C(=O)N(C)CC[N+](C)(CC)CC)cc1.[Br-] [Compound 55, N,N-Diethyl-N-methyl-2-(N-methyl-4-(2-(octyloxy)benzamido)benzamido)ethan-1-aminium bromide] | > 30 | > 30
16 | CCCCCCCCOc1ccccc1C(=O)Nc1ccc(C(=O)OCC[N+]2(CCC)CCCC2)cc1.[Br-] [Compound 56, 1-(2-((4-(2-(Octyloxy)benzamido)benzoyl)oxy)ethyl)-1-propylpyrrolidin-1-ium bromide] | 3 to 30 | < 3
17 | CCCCCCCCOc1ccccc1C(=O)Nc1ccc(C(=O)OC2CC[N+](CC)(CCC)CC2)cc1.[Br-] (stereo not shown) [Compound 57, 1-Ethyl-4-((4-(2-(octyloxy)benzamido)benzoyl)oxy)-1-propylpiperidin-1-ium bromide] | 3 to 30 | 3 to 30
18 | CCCCCCCCOc1ccccc1C(=O)Nc1ccc(C(=O)N(C)CC[N+](CC)(CC)CCC)cc1.[Br-] [Compound 59, N,N-Diethyl-N-(2-(N-methyl-4-(2-(octyloxy)benzamido)benzamido)ethyl)propan-1-aminium bromide] | > 30 | 3 to 30
19 | CCCCCCCCOc1ccccc1C(=O)Nc1ccc(C(=O)OCC[N+](CC)(CC)CC2CC2)cc1.[Br-] [Compound 60, N-(Cyclopropylmethyl)-N,N-diethyl-2-((4-(2-(octyloxy)benzamido)benzoyl)oxy)-ethan-1-aminium bromide] | 3 to 30 | 3 to 30
20 | CCCCCCCCOc1ccccc1C(=O)Nc1ccc(C(=O)OCC[N+](CC)(CC)CC2CCCC2)cc1.[Br-] [Compound 61, N-(Cyclopentylmethyl)-N,N-diethyl-2-((4-(2-(octyloxy)benzamido)benzoyl)oxy)-ethan-1-aminium bromide] | 3 to 30 | < 3
21 | CCCCCCCCOc1ccccc1C(=O)Nc1ccc(C(=O)OCC[N+](CC)(CC)CC2CCCCC2)cc1.[Br-] [Compound 62, N-(Cyclohexylmethyl)-N,N-diethyl-2-((4-(2-(octyloxy)benzamido)benzoyl)oxy)-ethan-1-aminium bromide] | 3 to 30 | < 3
22 | CCCCCCCCOc1ccccc1C(=O)Nc1ccc(C(=O)OCC[N+](CC)(CC)CCC(C)C)cc1.[Br-] [Compound 63, N,N-Diethyl-3-methyl-N-(2-((4-(2-(octyloxy)benzamido)benzoyl)oxy)ethyl)butan-1-aminium bromide] | 3 to 30 | < 3
23 | CCCCCOc1ccccc1C(=O)Nc1ccc(C(=O)OCC[N+](CC)(CC)CCC)cc1.[Br-] [Compound 64, N,N-Diethyl-N-(2-((4-(2-(pentyloxy)benzamido)benzoyl)oxy)ethyl)propan-1-aminium bromide] | > 30 | 3 to 30
24 | CCCCCOc1ccccc1C(=O)Nc1ccc(C(=O)OCC[N+](CC)(CC)CCCCC)cc1.[Br-] [Compound 65, N,N-Diethyl-N-(2-((4-(2-(pentyloxy)benzamido)benzoyl)oxy)ethyl)pentan-1-aminium bromide] | > 30 | 3 to 30
25 | CCCCCCOc1ccccc1C(=O)Nc1ccc(C(=O)OCC[N+](CC)(CC)CCC)cc1.[Br-] [Compound 66, N,N-Diethyl-N-(2-((4-(2-(hexyloxy)benzamido)benzoyl)oxy)ethyl)propan-1-aminium bromide] | > 30 | 3 to 30
26 | CCCCCCOc1ccccc1C(=O)Nc1ccc(C(=O)OCC[N+](CC)(CC)CCCC)cc1.[Br-] [Compound 67, N,N-Diethyl-N-(2-((4-(2-(hexyloxy)benzamido)benzoyl)oxy)ethyl)butan-1-aminium bromide] | > 30 | 3 to 30
27 | CCCCCCCOc1ccccc1C(=O)Nc1ccc(C(=O)OCC[N+](CC)(CC)CCC)cc1.[Br-] [Compound 69, N,N-Diethyl-N-(2-((4-(2-(heptyloxy)benzamido)benzoyl)oxy)ethyl)propan-1-aminium bromide] | > 30 | 3 to 30
28 | CCCCCCCOc1ccccc1C(=O)Nc1ccc(C(=O)OCC[N+](CC)(CC)CCCC)cc1.[Br-] [Compound 70, N,N-Diethyl-N-(2-((4-(2-(heptyloxy)benzamido)benzoyl)oxy)ethyl)butan-1-aminium bromide] | 3 to 30 | < 3
29 | CCCCCCCOc1ccccc1C(=O)Nc1ccc(C(=O)OCC[N+](CC)(CC)CCCCC)cc1.[Br-] [Compound 71, N,N-Diethyl-N-(2-((4-(2-(heptyloxy)benzamido)benzoyl)oxy)ethyl)pentan-1-aminium bromide] | 3 to 30 | < 3
